biological target: T1, CYP11A1 (Homo sapiens, UniProt P05108); assay: NCI-H295R cellular pregnenolone biosynthesis inhibition assay (ELISA method); assay type: cell-based; details: NCI-H295R cells, 3 days incubation, pregnenolone in cell supernatant by ELISA; read-out: IC50
T1 construct: host or cells: NCI-H295R
T1 sequence (P05108 40-521): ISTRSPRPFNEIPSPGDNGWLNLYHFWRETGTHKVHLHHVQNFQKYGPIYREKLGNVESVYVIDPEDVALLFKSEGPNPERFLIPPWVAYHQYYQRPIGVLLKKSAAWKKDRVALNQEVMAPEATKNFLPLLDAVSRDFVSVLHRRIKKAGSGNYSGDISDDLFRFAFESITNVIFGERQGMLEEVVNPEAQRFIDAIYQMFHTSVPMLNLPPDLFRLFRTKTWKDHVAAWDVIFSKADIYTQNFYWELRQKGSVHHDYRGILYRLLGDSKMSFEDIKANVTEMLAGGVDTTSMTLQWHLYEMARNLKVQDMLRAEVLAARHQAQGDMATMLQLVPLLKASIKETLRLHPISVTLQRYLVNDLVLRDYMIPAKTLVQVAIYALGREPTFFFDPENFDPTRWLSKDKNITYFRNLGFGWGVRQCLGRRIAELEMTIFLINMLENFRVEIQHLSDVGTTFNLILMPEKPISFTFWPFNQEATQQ
Experimental: The experiment aims to test the inhibitory effect of the compounds of the present disclosure on cellular pregnenolone biosynthesis, and to assess the inhibitory effect of the compounds on CYP11A1 target based on their IC50 values.
NCI-H295R cells (MINGZHOUBIO, MZ-2138) cultured in NCI-H295R complete medium (MINGZHOUBIO, MCM-0399).
Using culture medium, NCI-H295R cells were seeded into a new 384-well cell culture plate (Greiner, 781091) at a density of 5,000 cells per well, with 45µL of cell suspension per well. The test compounds were prepared by adding 5µL of compound solution at 10× concentration to each well, to a maximum final concentration of 10µM, followed by 3× serial dilution for 10 points, with a final DMSO concentration of 0.1%, centrifuging at 1,000 rpm for 1 minute at room temperature, and then incubating in a 5% CO2 cell incubator at 37°C for 3 days.
Pregnenolone ELISA kit (Abnova, KA1912) was used for detecting the content of pregnenolone in the supernatant of cell culture. Before detection, the reagents were allowed to come back to room temperature for 1 hour. After taking out the 384-well plate, the cellular supernatant was pipetted and subjected to 5× dilution with the Assay Buffer provided in the kit. A working solution of competitive molecule and a washing solution in accordance with the instructions was prepared. 50µL of diluted cellular supernatant were pipetted into the 96-well plate provided in the ELISA kit, added with 100µL of working solution of competitive molecule per well and the plate was incubated at room temperature for 1.5 hours. After discarding the liquid, the plate was washed with 300µL of washing solution per well three times and dried. After adding 150 µL of substrate chromogenic solution per well, the plate was incubated at room temperature for 10-15 minutes. After adding 50 µL of termination solution per well, the plate was incubated at room temperature for 10-15 minutes and read for absorbance at 450nm with Envision HTS Multilabel Reader.
The wells added with 1µM ODM-208 were defined as 100% inhibition (positive control), the wells containing DMSO at a final concentration of 0.1% were defined as 0% inhibition (negative control), and inhibitory ratio = (absorbance of tested sample - average absorbance of negative control)/(average absorbance of positive control - average absorbance of negative control)*100%. The data were subjected to four-parameter fitting using GraphPad Prism to calculate the IC50 values of the compounds.

IC50 [nM]	SMILES
< 100	COc1cc(CN2Cc3ccccc3C2)ccc1CCC1CCN(S(=O)(=O)C2CC2)CC1 [compound 69]
< 100	COc1cc(CN2Cc3ccccc3C2)ccc1CCC1CCN(C(C)=O)CC1 [compound 70]
100 to 300	COc1cc(CN2Cc3ccccc3C2)ccc1CCC1CCN(C(=O)C(F)(F)F)CC1 [compound 71]
100 to 300	CCOc1cc(CN2Cc3ccccc3C2)ccc1CCC1CCN(S(C)(=O)=O)CC1 [compound 73]
< 100	CC(C)c1cc(CN2Cc3ccccc3C2)ccc1CCC1CCN(S(C)(=O)=O)CC1 [compound 74]
< 100	COc1cc(CN2Cc3ccccc3C2)ccc1CCC1CCN(S(=O)(=O)c2ccc(C)cc2)CC1 [compound 75]
100 to 300	CC(C)Oc1cc(CN2Cc3ccccc3C2)ccc1CCC1CCN(S(C)(=O)=O)CC1 [compound 76]
100 to 300	COc1cc(CN2Cc3ccccc3C2)ccc1CCC1CCN(S(=O)(=O)C(F)(F)F)CC1 [compound 77]
< 100	COc1cc(CN2Cc3ccccc3C2)ccc1CCC1CCN(S(=O)(=O)c2cccs2)CC1 [compound 78]
< 100	CNC(=O)N1CCC(CCc2ccc(CN3Cc4ccccc4C3)cc2OC)CC1 [compound 79]
< 100	COC(=O)N1CCC(CCc2ccc(CN3Cc4ccccc4C3)cc2OC)CC1 [compound 80]
< 100	COc1cc(CN2Cc3ccccc3C2)ccc1CCC1CCN(C(=O)C(C)(C)C)CC1 [compound 81]
100 to 300	C=CS(=O)(=O)N1CCC(CCc2ccc(CN3Cc4ccccc4C3)cc2OC)CC1 [compound 82]
> 300	CS(=O)(=O)N1CCC(CCc2ccc(CN3Cc4ccccc4C3)o2)CC1 [compound 83]
< 100	CS(=O)(=O)N1CCC(CCc2ccc(CN3Cc4ccccc4C3)cc2Cl)CC1 [compound 84]
< 100	COc1c(CCC2CCN(S(C)(=O)=O)CC2)ccc(CN2Cc3ccccc3C2)c1F [compound 85]
100 to 300	CS(=O)(=O)N1CCC(CCc2ncc(CN3Cc4ccccc4C3)s2)CC1 [compound 86]
> 300	CS(=O)(=O)N1CCC(CCc2cnc(CN3Cc4ccccc4C3)s2)CC1 [compound 87]
> 300	COc1cc(CN2Cc3ccccc3C2)ccc1CCC1CCS(=O)(=O)CC1 [compound 88]
100 to 300	COc1nc(CN2Cc3ccccc3C2)c(F)cc1CCC1CCN(S(C)(=O)=O)CC1 [compound 89]

IC50 [nM]	SMILES
< 100	Cn1c(CN2Cc3ccccc3C2)ccc(CCC2CCN(S(C)(=O)=O)CC2)c1=O [compound 90]
> 300	Cn1c(CN2Cc3ccccc3C2)c(F)cc(CCC2CCCN(S(C)(=O)=O)C2)c1=O (stereo not shown) [compound 91]
100 to 300	COc1cc(CN2Cc3ccccc3C2)ccc1CCC1(O)CCN(S(C)(=O)=O)CC1 [compound 92]
100 to 300	COc1cc(CN2Cc3ccccc3C2)ccc1C#CC1(O)CCN(S(C)(=O)=O)CC1 [compound 93]
100 to 300	CS(=O)(=O)N1CCC(CCc2cc(F)c(CN3Cc4ccccc4C3)[nH]c2=O)CC1 [compound 94]
> 300	CS(=O)(=O)N1CCC(CCc2sc(CN3Cc4ccccc4C3)cc2Br)CC1 [compound 95]
> 300	CS(=O)(=O)N1CCC(CCc2sc(CN3Cc4ccccc4C3)cc2C#N)CC1 [compound 96]
> 300	COc1cc(CN2Cc3ccccc3C2)ccc1C#CC1=CCS(=O)(=O)CC1 [compound 97]
100 to 300	Cn1c(CN2Cc3cccnc3C2)c(F)cc(CCC2CCN(S(C)(=O)=O)CC2)c1=O [compound 98]
> 300	Cn1c(CN2Cc3ccncc3C2)c(F)cc(CCC2CCN(S(C)(=O)=O)CC2)c1=O [compound 99]
> 300	Cn1c(CN2Cc3cccc(F)c3C2)c(F)cc(CCC2CCN(S(C)(=O)=O)CC2)c1=O [compound 100]
> 300	Cn1c(CN2Cc3ccc(F)cc3C2)c(F)cc(CCC2CCN(S(C)(=O)=O)CC2)c1=O [compound 101]
< 100	CC(c1c(F)cc(CCC2CCN(S(C)(=O)=O)CC2)c(=O)n1C)N1Cc2ccccc2C1 (stereo not shown) [compound 102]
100 to 300	Cn1c(CN2Cc3ccccc3C2)c(F)cc(C=CC2CCN(C(=O)OC(C)(C)C)CC2)c1=O [compound 103]
< 100	Cn1c(CN2Cc3ccccc3C2)c(F)cc(C=CC2CCN(S(C)(=O)=O)CC2)c1=O [compound 104]
< 100	Cn1c(CN2Cc3ccccc3C2)c(F)cc(C=CC2CCN(C(=O)OC(C)(C)C)CC2)c1=O [compound 105]
< 100	[2H]C([2H])([2H])n1c(CN2Cc3ccccc3C2)c(F)cc(CCC2CCN(S(C)(=O)=O)CC2)c1=O [compound 106]
< 100	CCn1c(CN2Cc3ccccc3C2)c(F)cc(CCC2CCN(S(C)(=O)=O)CC2)c1=O [compound 107]
< 100	[2H]C(c1c(F)cc(CCC2CCN(S(C)(=O)=O)CC2)c(=O)n1C)N1Cc2ccccc2C1 (stereo not shown) [compound 108]
< 100	CC1CC(CCc2cc(F)c(CN3Cc4ccccc4C3)n(C)c2=O)CCN1S(C)(=O)=O (stereo not shown) [compound 109]

IC50 [nM]	SMILES
< 100	CCS(=O)(=O)N1CCC(C=Cc2cc(F)c(CN3Cc4ccccc4C3)n(C)c2=O)CC1 [compound 110]
< 100	Cn1c(CN2Cc3ccccc3C2)c(F)cc(C=CC2CCN(S(=O)(=O)C3CC3)CC2)c1=O [compound 111]
< 100	Cn1c(CN2Cc3ccccc3C2)c(F)cc(CCC2CCN(S(C)(=O)=O)CC2(C)C)c1=O (stereo not shown) [compound 114]
< 100	CC1CC(C#Cc2cc(F)c(CN3Cc4ccccc4C3)n(C)c2=O)CCN1C(=O)OC(C)(C)C (stereo not shown) [compound 115]
< 100	[2H]C([2H])(c1c(F)cc(CCC2CCN(S(C)(=O)=O)CC2)c(=O)n1C)N1Cc2ccccc2C1 [compound 116]
< 100	CC1CC(CCc2cc(F)c(CN3Cc4ccccc4C3)n(C)c2=O)CCN1C(=O)OC(C)(C)C (stereo not shown) [compound 117]
100 to 300	Cn1c(CN2Cc3ccccc3C2)c(F)cc(CCN2CCN(S(C)(=O)=O)CC2)c1=O [compound 118]
100 to 300	CC(=O)N1CCN(CCc2cc(F)c(CN3Cc4ccccc4C3)n(C)c2=O)CC1 [compound 119]
< 100	Cn1c(CN2Cc3ccccc3C2)c(F)cc(-c2ccc3c(c2)CCN(S(C)(=O)=O)C3)c1=O [compound 120]
< 100	[2H]C([2H])(c1c(F)cc(CCC2CCN(C(=O)OC(C)(C)C)CC2)c(=O)n1C)N1Cc2ccccc2C1 [compound 121]
< 100	Cn1c(CN2Cc3ccccc3C2)c(F)cc(C(O)CC2CCN(C(=O)OC(C)(C)C)CC2)c1=O (stereo not shown) [compound 122]
< 100	Cn1c(CN2Cc3ccccc3C2)c(F)cc(C(F)=CC2CCN(S(C)(=O)=O)CC2)c1=O [compound 123]
< 100	Cn1c(CN2Cc3ccccc3C2)c(F)cc(C(F)CC2CCN(S(C)(=O)=O)CC2)c1=O (stereo not shown) [compound 124]
< 100	Cn1c(CN2Cc3ccccc3C2)c(F)cc(C(=O)CC2CCN(C(=O)OC(C)(C)C)CC2)c1=O [compound 125]
< 100	Cn1c(CN2Cc3ccccc3C2)c(F)cc(-c2cnc3c(c2)CCN(S(C)(=O)=O)C3)c1=O [compound 126]
> 300	Cn1c(CN2Cc3ccccc3C2)c(F)cc(-c2ccc3c(n2)CCN(S(C)(=O)=O)C3)c1=O [compound 127]
100 to 300	Cn1c(CN2Cc3ccccc3C2)c(F)cc(C(F)=CC2CCN(C(=O)OC(C)(C)C)CC2)c1=O [compound 128]
< 100	Cn1c(CN2Cc3ccccc3C2)c(F)cc(CCN2CCN(C(=O)OC(C)(C)C)CC2)c1=O [compound 129]
